Measurements from publication PMC5007854, “β-Nitrostyrenes as Potential Anti-leishmanial Agents” (Frontiers in Microbiology, 2016).
Where two headings read alike, the source gives them in different places.

Legend:
[1] = test system: L. donovani promastigotes; test: Anti-leishmanial screening at 100 μM, parasite viability by microscopy; type: cell-based, Leishmania donovani; settings: 100 μM, 72 h, phase contrast microscope
Method in brief: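 Promastigotes (MHOM/IN/83/AG83) at 2 × 10^6 cells/mL in M199 with 10% FBS exposed to compound at 100 μM for 72 h at 22°C. Viability assessed microscopically; 0.2% DMSO solvent control, amphotericin B reference.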

[2] = test system: L. donovani intracellular amastigotes; test: Anti-amastigote activity in ex vivo macrophage model; type: cell-based, Leishmania donovani; settings: 48 h; for Clearance of intracellular amastigotes in Giemsa-stained micrographs: 1.56 μM; for IC50: Leishmania donovani, Peritoneal macrophage, in Mus musculus, read-out: L. donovani amastigotes IC50 ± SEM
From the text: BALB/c mice was used for the isolation of peritoneal macrophages in the ex vivo anti-amastigote study after prior approval from the Jamia Hamdard Animal Ethics Committee (JHAEC). JHAEC is registered under the Committee for the purpose of supervision and control of experiments on animals (CPCSEA). Mice were individually housed in the Central Animal House of Jamia Hamdard as per internationally accepted norms. The mice were kept in standard size polycarbonate cages under controlled conditions of temperature (23 ± 1°C), humidity (55 ± 10%), 12:12 h of light and dark cycle and fed with standard pellet diet and filtered water (ad libitum).
Macrophages from the peritonial cavity of BALB/c mice (1 × 10^6 cellsml^−1) were allowed to adhere to round glass coverslips in a 24 well tissue culture plate and incubated for 12 h at 37°C in a CO2 incubator. After removal of the non-adherent macrophages, the cells were infected with stationary phase promastigotes using a cell to parasite ratio of 1:10 and incubated at 37°C for 24 h. The non-phagocytosed parasites were removed by washing, and the infected macrophages incubated with the test compounds 9, 12, 14, and 18 (0–25 μM) for an additional 48 h. The coverslips were fixed in methanol and giemsa-stained for microscopic evaluation (100X) of amastigote infectivity. Number of amastigotes per 100 macrophages were enumerated and the concentration that decreased amastigotes by 50% (IC50) was determined (Wong et al., [2012]; Islamuddin et al., [2014a]).
In vitro antileishmanial activity was expressed as IC50 by linear regression analysis. Values are mean ± SE of samples in triplicate from at least three independent experiments. Statistical analysis was performed using ANOVA followed by Dunnett's test. ^*P < 0.05, ^**P < 0.01 and ^***P < 0.001 compared with the untreated control group were considered significant.

[3] = test system: L. donovani promastigotes; test: Leishmanicidal assay (growth reversion after wash-out); type: cell-based, Leishmania donovani; settings: 1 μM, 72 h treatment, then 72 h in fresh media
Procedure: To confirm the leishmanicidal effect of compounds 9, 12, 14, and 18, treated and untreated parasites (1 μM) after 72 h of incubation, were washed two times with fresh incomplete medium and finally resuspended in complete media, transferred back to 22°C and allowed to grow for 72 h. The viability of the parasites was determined microscopically (Afrin et al., [2001]).

[4] = test system: nitric oxide production in L. donovani infected peritoneal macrophages; test: Nitrite (NO) production by Griess reaction in infected macrophages; type: cell-based, BALB/c mice; settings: 48 h; for NO levels, in words: 0–25 μM; for NO production (nitrite): compound at 25 μM
Procedure: The supernatant from control L. donovani infected and treated macrophages were analyzed for nitrite content by the Griess reaction. In brief, equal volume of Griess reagent [1%sulphanilamide and 0.1% N-(1-naphthyl) ethylenediaminedihydrochloride in 5% phosphoric acid] was added to the culture supernatant and the plates were incubated for 10 min at room temperature using sodium nitrite as a standard. The absorbance at 550 nm was measured and the concentration of nitrite was calculated by a linear regression analyzing the standard curve generated with sodium nitrite (Varela et al., [2012]).

[5] = test system: murine macrophage cell line RAW264.7; test: Ex vivo cytotoxicity assay (MTT); type: cell-based; settings: increasing concentrations, 48 h, 37°C (Figure 6)
Procedure: Murine macrophage cell line, RAW264.7 was grown at 37°C in medium RPMI-1640 (pH 7.4, Sigma-Aldrich, St. Louis, MO, USA) supplemented with 10% heat-inactivated FBS for 48 to 72 h in a humidified atmosphere of 5% CO2 and sub-cultured in fresh RPMI-1640 medium at an average density 2 × 10^5 cells/ml (Islamuddin et al., [2014b]).
To evaluate the adverse toxicity of test compounds (9, 12, 14, and 18) on mammalian cells, the murine macrophage cell line (RAW264.7) cultured in RPMI 1640 medium were exposed to increasing concentrations of test compounds (5–50 μM) at 37°C, 5% CO2 for 48 h. AmB as the reference drug, and macrophages without any treatment were taken as control. The percentage of cell viability was evaluated by MTT (3-{4, 5-dimethylthiazol-2-yl}-2, 5-diphenyltetrazoliumbromide) assay (Das et al., [2008]).

[6] = test system: L. donovani promastigotes; test: Promastigote cellular morphology by phase-contrast microscopy; type: cell-based, Leishmania donovani; settings: 1 μM, 72 h
Procedure: Changes in the cellular morphology of Leishmania parasites as a result of compounds 9, 12, 14, and 18 treatment was observed microscopically. Briefly, the promastigotes (2 × 10^6 cells/mL) were incubated in the absence or presence of compounds and AmB for 72 h at a concentration of 1 μM and observed under 40 × objective of a phase-contrast microscope. […] Data were recorded by using NIS-Elements imaging software (Paris et al., [2004]).

[7] = intracellular amastigotes in BALB/c peritoneal macrophages

Compound	Parasite viability after treatment [1]	Clearance of intracellular amastigotes in Giemsa-stained micrographs [2]	IC50 [2] [nM]	Leishmanicidal effect (reversion after wash and 72 h in fresh media) [3]	NO levels, in words [4]	NO production (nitrite) [4] [µM]	Adverse toxicity on macrophage cell line RAW264.7 [5]	Cellular morphological alterations of promastigotes [6]	IC50 [2, 7] [nM]
CC/C(=C\c1ccc([N+](=O)[O-])cc1)[N+](=O)[O-] [Compound 9, 1-nitro-4-((E)-2-nitrobut-1-enyl) benzene]	All the parasites were found to be dead	almost total clearance	30.5 ± 3.42	did not revert back to their normal morphology and still appeared dead	moderately increased	8.05	Absence of adverse toxicity	altered to an ovoid shape with cell shrinkage, loss of flagella, cytoplasmic condensation	
CC/C(=C\c1cccc([N+](=O)[O-])c1)[N+](=O)[O-] [Compound 12, 1-nitro-3-((E)-2-nitrobut-1-enyl) benzene]	All the parasites were found to be dead	almost total clearance	21.5 ± 0.96	did not revert back to their normal morphology and still appeared dead	moderately increased	7.89	Absence of adverse toxicity	altered to an ovoid shape with cell shrinkage, loss of flagella, cytoplasmic condensation	
COc1ccc(/C=C(\C)[N+](=O)[O-])cc1 [Compound 14, 1-methoxy-4-((E)-2-nitroprop-1-enyl) benzene]	All the parasites were found to be dead	almost total clearance		did not revert back to their normal morphology and still appeared dead	mildly induced	5.89	Absence of adverse toxicity	altered to an ovoid shape with cell shrinkage, loss of flagella, cytoplasmic condensation	26.4 ± 2.71
CC/C(=C\c1ccc(O)cc1)[N+](=O)[O-] [Compound 18, 4-((E)-2-nitrobut-1-enyl) phenol]	All the parasites were found to be dead	almost total clearance		did not revert back to their normal morphology and still appeared dead		3.22	Absence of adverse toxicity	altered to an ovoid shape with cell shrinkage, loss of flagella, cytoplasmic condensation	61.6 ± 8.02
